Where two headings read alike, the source gives them in different places.
What was measured:
PAK3 = target: T1, PAK3 (Homo sapiens, UniProt O75914); experiment: Enzyme based PAK3 kinase assay (HTRF / TR-FRET), IC50; assay type: biochemical; settings: PAK3 inhibitory compounds; IC50 done in quadruplicate
T1 construct: Recombinant human full length PAK3 enzyme was obtained (Invitrogen); purchased Invitrogen
Description: Recombinant human full length PAK3 enzyme was obtained (Invitrogen), immediately aliquoted and kept in storage buffer as purchased at −80° C. for long term storage. The HTRF® KinEASE™ kit (CisBio) containing 5× stock solution of the enzymatic buffer and 1× detection buffer, STK substrate 2-biotin (S2), a phosphospecific monoclonal Europium-labeled Cryptate antibody, which recognizes a phospholylation epitope of the biotinylated peptide, as donor fluorophore and Stretptavadin-linked XL665 (SA-XL665) representing the acceptor fluorophor were used for TR-FRET assays. The compound library consisted of approximately 125,000 small molecules, including compounds approved by the Food and Drug Administration (FDA), a purified natural products library and commercially available compounds from various vendors. All small molecules generally adhere to Lipinski's rules and have been optimized for maximization of molecular diversity.
An enzyme based kinase assay was carried out using full length recombinant PAK3 kinase. A model biotinylated peptide RRRSLLE (SEQ ID NO:5) was used as the substrate. Detection was done by Homogeneous Time Resolve Fluorescence (HTRF) with an antibody that recognizes the phosphorylation site on the peptide.
TR-FRET assays were carried out as follows. A CRS CataLyst Express robotic arm and a Cybi-well 384 channel simultaneous pipettor were used to carry out the High-Throughput Screen. Kinase reactions were performed in 50 mM HEPES, pH 7.0, 0.02% NaN3, 2 mM MgCl2, 0.01% BSA, 0.1 mM Orthonanadate, 1 mM DTT, 0.001% Tween-20, 0.001% Brij-35 using ProxiPlate-384 Plus white assay plates. […] The kinase reaction was initiated by addition of […] per reaction (25 μM ATP final, at the Km). The reaction was incubated for 30 minutes at room temperature. Reaction was terminated by addition of 10 μl of a premixed solution of EDTA, Europium cryptate-labeled antibody and fluorophore-conjugated streptavadin. After overnight incubation at room temperature, TR-FRET measurements were performed using a PHERAstar HTS microplate reader, and were expressed as ratios of acceptor fluorescence at 665 nm over donor fluorescence at 620 nm.
(§1) Data were analyzed using GraphPad Prism Version 5 (GraphPad Software Inc., La Jolla, Calif., USA). Each compound plate included one column of negative controls, were no enzyme was added, and another column for positive controls when no inhibitor compound was added; these were used to calculate Z′ factors and signal to noise ratios throughout the screen. […] IC50 determinations were done in quadruplicate for each compound using different adding sequences for compound and enzyme-substrate-mix. EC50 determinations were done in triplicate for each compound using different time points. For calculation of IC50 and EC50 concentrations, respectively, mean inhibition dose response curves were fitted to the sigmoidal response equation: Y=Bottom+(Top−Bottom)/(1+10̂((X−LogIC50))) were X is log(compound concentration) and Y is % inhibition, and Bottom and Top are the lower and upper plateau. Km concentrations were determined by non-linear regression curve fitting, using the equation: Y=Vmax*X/(Km+X), where X is the substrate concentration.

HeLa cells = experiment: Cell-based assay in HeLa cells (AlamarBlue cell viability), EC50; design: species or system human
Description: HeLa cells (ATCC) were maintained in Dulbecco's modified Eagle medium (DMEM) supplemented with 10% fetal bovine serum and 1% Penicillin/Streptomycin. Approximately 200 to 500 cells per well were seeded in a 96 well tissue culture plates. Following 24 h growth in normal DMEM, the individual compounds were warmed up to room temperature and diluted in DMEM to their according concentration and then immediately added to the wells. One column on each assay plate contained DMEM only (“neg. control”) and one column contained untreated HeLa cells as “pos. control”. Cells were treated with the compounds at various cell densities and for treatment periods ranging between 75 hrs and approx. 200 hrs. To control for cell viability, we assayed plates using AlamarBlue° (Invitrogen), which uses a redox reaction to measure metabolically active viable cells. At each time point the culture media was removed and a solution of 10% AlamarBlue reagent and DMEM was added to each well to measure cell viability. Fluorescence was measured after 1-2 hrs incubation at 37 C on a Victor^2 Plate Reader (PerkinElmer).
as §1
Compounds were tested in a cell-based assay (HeLa cells). IC50 and EC50 are expressed in micromolar units.

SGK2 = experiment: Inhibition of kinase activity by SGK2 inhibitory compounds, single concentration; assay type: biochemical; settings: 10 μM compound
Text: A library of compounds was screened for inhibitors of SGK2 and PAK3 activity by assaying phosphorylation of a generic peptide substrate either directly; or indirectly by inhibiting upstream kinase PDK1 from activating the enzyme in vitro. In both cases, the phosphorylated substrate was detected using a specific anti-phospho peptide antibody that is coupled with Eu^3+ Cryptate and XL665 conjugated with streptavidin. […] All initial hits were re-assayed as a dose response series with eight 3-fold dilutions and resulting final concentrations ranged from 0.9 nM to 20 μM.

[1] = 75 h treatment, read-out: EC50 75 h
[2] = 150 h treatment, read-out: EC50 150 h
[3] = read-out: EC50 100 h, 100 h treatment

T1 sequence (O75914 1-544 isoform O75914-2): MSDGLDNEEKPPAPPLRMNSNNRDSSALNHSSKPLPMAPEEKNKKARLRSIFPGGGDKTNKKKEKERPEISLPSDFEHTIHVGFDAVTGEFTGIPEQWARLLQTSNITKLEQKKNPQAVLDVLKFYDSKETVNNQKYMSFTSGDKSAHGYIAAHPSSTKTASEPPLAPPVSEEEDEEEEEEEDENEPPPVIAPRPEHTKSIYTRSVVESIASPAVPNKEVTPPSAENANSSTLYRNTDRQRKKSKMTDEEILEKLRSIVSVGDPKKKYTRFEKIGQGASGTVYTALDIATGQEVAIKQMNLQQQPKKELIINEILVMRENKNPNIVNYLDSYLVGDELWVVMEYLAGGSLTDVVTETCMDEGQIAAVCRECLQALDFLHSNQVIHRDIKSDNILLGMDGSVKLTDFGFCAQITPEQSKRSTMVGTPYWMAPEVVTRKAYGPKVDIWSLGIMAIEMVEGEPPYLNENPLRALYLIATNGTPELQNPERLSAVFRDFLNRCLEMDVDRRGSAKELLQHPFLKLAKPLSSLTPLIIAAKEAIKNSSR

| IC50 (PAK3) [nM] | EC50 (HeLa cells; [1]) [µM] | EC50 (HeLa cells; [2]) [µM] | EC50 (HeLa cells; [3]) [µM] | % Inhibition at 10 μM (SGK2) [%] | Compound |
| --- | --- | --- | --- | --- | --- |
|  |  |  |  | 73 | O=C(CSc1ncnc2c1oc1ccccc12)Nc1ccccc1 [LDN-0107896] |
|  |  |  |  | 66 | COc1ccc(NC(=O)CSc2ncnc3c2oc2ccccc23)cc1 [LDN-0107905] |
|  |  |  |  | 67 | Cc1cccc(NC(=O)CSc2ncnc3c2oc2ccccc23)c1C [LDN-0107915] |
|  |  |  |  | 62 | Cc1ccc(NC(=O)Cn2cc(C(=O)c3ccccc3)c(=O)c3ccc(C)nc32)cc1 [LDN-0130103] |
|  |  |  |  | 70 | Cc1ccc2c(=O)c(C(=O)c3ccccc3)cn(CC(=O)Nc3cccc(C)c3C)c2n1 [LDN-0130105] |
| 280 | 11.1 | 10.4 | 12.7 |  | Cc1ccccc1-c1c(C#N)c(N)nc(SCc2ccccc2)c1C#N [LDN-0211959] |

More lines, now with the values behind:

| Compound | IC50 (PAK3) [nM] | EC50 (HeLa cells; [1]) [µM] | EC50 (HeLa cells; [2]) [µM] | EC50 (HeLa cells; [3]) [µM] | % Inhibition at 10 μM (SGK2) [%] |
| --- | --- | --- | --- | --- | --- |
| Cc1ccc(-c2c(C#N)c(SCC(=O)c3ccc(O)c(O)c3)nc3c2CCCC3)o1 [LDN-0026056] | 690 | 13.9 | 18 | 16.9 |  |
| N#Cc1c(N)nc(SCc2ccccc2)c(C#N)c1-c1ccc(O)cc1 [LDN-0028618] | 300 | 13.3 | 18.1 | 16.6 | 87 |
| Cc1cc(-c2ccco2)c(C#N)c(SCC(=O)c2ccc(O)c(O)c2)n1 [LDN-0041012] | 610 | 4.6 | 3.4 | 4.6 | 95 |
| COc1ccc(-c2nc(-c3ccc(Sc4ccccc4)cc3)c(-c3ccccc3)[nH]2)cc1 [LDN-0044878] | 30 | 10.7 | 11.1 | 15.5 | 79 |
| Cc1nc(-c2ccccc2)c(-c2ccccc2)[nH]1 [LDN-0091420] | 10100 | 38.2 | 42.5 | 40.7 |  |
| O=C(OCC1OC(OC(=O)c2cc(O)c(O)c(OC(=O)c3cc(O)c(O)c(O)c3)c2)C(OC(=O)c2cc(O)c(O)c(OC(=O)c3cc(O)c(O)c(O)c3)c2)C(OC(=O)c2cc(O)c(O)c(OC(=O)c3cc(O)c(O)c(O)c3)c2)C1OC(=O)c1cc(O)c(O)c(OC(=O)c2cc(O)c(O)c(O)c2)c1)c1cc(O)c(O)c(OC(=O)c2cc(O)c(O)c(O)c2)c1 (centres unmarked) [LDN-0097728] |  |  |  |  | 85 |
| O=c1cc(-c2cc(O)c(O)c(O)c2)oc2cc(O)cc(O)c12 [LDN-0097731] |  |  |  |  | 87 |
| CCc1cc(-c2n[nH]cc2-c2ccc(Br)cc2)c(O)cc1O [LDN-0106197] |  |  |  |  | 67 |
| O=C(Nc1cccc(-c2cscn2)c1)C1CCN(Cc2cccc(-c3ccco3)c2)CC1 [LDN-0117557] |  |  |  |  | 60 |
| Cc1cc(C)c(C#N)c(SCC(=O)c2ccc(O)c(O)c2)n1 [LDN-0211955] | 3530 | 17.6 | 23.3 | 34 |  |
| N#Cc1c(N)nc(SCc2ccccc2)c(C#N)c1-c1ccccc1Cl [LDN-0211958] | 330 | 11.2 | 10.6 | 11.6 |  |
